test system: Kelly neuroblastoma; experiment: Inhibition of cell proliferation (CellTiter-Glo), Kelly; type: cell-based; conditions: 72 hours incubation, CellTiter-Glo, 4,000 cells/well
Method: Exemplary compounds of the invention were tested at different concentrations. Cells were plated in 96-well plates at the following seeding densities: Jurkat T-cell acute lymphoblastic leukemia 25,000 cells/well; HCT116 colorectal carcinoma 8,000 cells/well; Kelly neuroblastoma 4,000 cells/well. The cells were treated with various concentration of compounds (ranging from 1 nM to 10 μM). DMSO solvent with no compound served as a control. Following incubation for 72 hours, cell survival following treatment with exemplary compounds described herein was assessed by CellTiter-Glo® Luminescent cell viability assay (Promega). IC50 values were determined using GRAPHPAD PRISM 6 software. Exemplary results are shown in Table A3, wherein “A” represents a calculated IC50 value of less than 500 nM; “B” represents a calculated IC50 value of greater than or equal to 500 nM and less than 5000 μM; and “C” represents a calculated IC50 value of 5000 μM or greater

| IC50 [µM] | Structure (SMILES) |
| --- | --- |
| ≥ 5000 | C=CC(=O)Nc1ccc(C(=O)Nc2ccc(Nc3n[nH]c4c3CN(C(=O)N[C@H](CN(C)C)c3ccccc3)C4(C)C)cc2)cc1 [Compound 102, (S)-3-((4-(4-acrylamidobenzamido)phenyl)amino)-N-(2-(dimethylamino)-1-phenylethyl)-6,6-dimethyl-4,6-dihydropyrrolo[3,4-c]pyrazole-5(1H)-carboxamide] |
| 0.5 to 5000 | C=CC(=O)Nc1ccc(C(=O)Nc2cccc(C(=O)Nc3n[nH]c4c3CN(C(=O)N[C@H](CN(C)C)c3ccccc3)C4(C)C)c2)cc1 [Compound 112, (S)-3-(3-(4-acrylamidobenzamido)benzamido)-N-(2-(dimethylamino)-1-phenylethyl)-6,6-dimethyl-4,6-dihydropyrrolo[3,4-c]pyrazole-5(1H)-carboxamide] |

target: CDK7 (Homo sapiens (Human), UniProt P50613); experiment: Inhibition of kinase activity, CDK7; type: biochemical; conditions: co-factors cyclin H and MNAT1
Sequence (P50613 whole entry): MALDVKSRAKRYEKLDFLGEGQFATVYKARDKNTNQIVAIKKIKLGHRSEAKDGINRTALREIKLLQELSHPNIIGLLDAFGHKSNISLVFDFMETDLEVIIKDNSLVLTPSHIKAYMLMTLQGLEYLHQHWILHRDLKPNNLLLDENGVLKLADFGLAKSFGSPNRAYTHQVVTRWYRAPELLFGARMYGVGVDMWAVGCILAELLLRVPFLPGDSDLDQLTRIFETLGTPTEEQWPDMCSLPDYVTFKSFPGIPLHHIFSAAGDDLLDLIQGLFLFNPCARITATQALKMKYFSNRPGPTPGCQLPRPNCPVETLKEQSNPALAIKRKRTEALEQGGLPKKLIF
Sequence (P51946 whole entry partner): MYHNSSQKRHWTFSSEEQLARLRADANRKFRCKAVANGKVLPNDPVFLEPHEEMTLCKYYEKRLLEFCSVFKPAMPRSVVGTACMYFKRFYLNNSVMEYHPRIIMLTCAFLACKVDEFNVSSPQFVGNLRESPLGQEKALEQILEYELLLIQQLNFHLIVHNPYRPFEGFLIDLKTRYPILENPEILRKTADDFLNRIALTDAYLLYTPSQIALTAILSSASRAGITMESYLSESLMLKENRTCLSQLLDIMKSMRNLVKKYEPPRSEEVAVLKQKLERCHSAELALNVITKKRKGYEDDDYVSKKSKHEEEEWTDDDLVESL
Sequence (P51948 whole entry partner): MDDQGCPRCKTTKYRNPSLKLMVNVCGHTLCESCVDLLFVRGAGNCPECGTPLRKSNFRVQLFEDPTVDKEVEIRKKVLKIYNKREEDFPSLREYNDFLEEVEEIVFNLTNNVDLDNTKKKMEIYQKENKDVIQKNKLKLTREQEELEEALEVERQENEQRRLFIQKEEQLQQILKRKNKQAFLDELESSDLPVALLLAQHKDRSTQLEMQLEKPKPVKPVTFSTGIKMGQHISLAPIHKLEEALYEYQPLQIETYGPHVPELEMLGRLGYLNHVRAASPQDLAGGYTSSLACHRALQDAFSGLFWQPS
Method: Compounds of the invention were assayed for activity against a variety of different kinases. Exemplary results are presented as calculated IC50 values (Table A1 & A2). In Table A1 and A2 “A” represents a calculated IC50 value of less than 100 nM; “B” represents a calculated IC50 value of greater than or equal to 100 nM and less than 1 μM; and “C” represents a calculated IC50 value of 1 μM or greater. The co-factors used for each kinase in the assays were as follows: CDK7: cyclin H and MNAT1; CDK2: cyclin A; CDK9: cyclin K.

| IC50 [µM] | Structure (SMILES) |
| --- | --- |
| < 0.1 | C=CC(=O)Nc1ccc(C(=O)Nc2ccc(Nc3n[nH]c4c3CN(C(=O)N[C@H](CN(C)C)c3ccccc3)C4(C)C)cc2)cc1 [Compound 102, (S)-3-((4-(4-acrylamidobenzamido)phenyl)amino)-N-(2-(dimethylamino)-1-phenylethyl)-6,6-dimethyl-4,6-dihydropyrrolo[3,4-c]pyrazole-5(1H)-carboxamide] |
| < 0.1 | C=CC(=O)Nc1ccc(C(=O)Nc2cccc(C(=O)Nc3n[nH]c4c3CN(C(=O)N[C@H](CN(C)C)c3ccccc3)C4(C)C)c2)cc1 [Compound 112, (S)-3-(3-(4-acrylamidobenzamido)benzamido)-N-(2-(dimethylamino)-1-phenylethyl)-6,6-dimethyl-4,6-dihydropyrrolo[3,4-c]pyrazole-5(1H)-carboxamide] |
| 0.1 to 1 | C=CC(=O)Nc1ccc(C(=O)Nc2n[nH]c3c2CN(C(=O)N[C@H](CN(C)C)c2ccccc2)C32CCCCC2)cc1 [Compound 236, (S)-3′-(4-acrylamidobenzamido)-N-(2-(dimethylamino)-1-phenylethyl)-1′,4′-dihydro-5′H-spiro(cyclohexane-1,6′-pyrrolo[3,4-c]pyrazole]-5′-carboxamide] |
| ≥ 1 | C=CC(=O)Nc1ccc(C(=O)Nc2n[nH]c3c2CN(C(=O)N[C@H](CN(C)C)c2ccccc2)[C@@H]3c2ccccc2)cc1 [Compound 237, (R)-3-(4-acrylamidobenzamido)-N-((S)-2-(dimethylamino)-1-phenylethyl)-6-phenyl-4,6-dihydropyrrolo[3,4-c]pyrazole-5(1H)-carboxamide] |
| ≥ 1 | C=CC(=O)Nc1ccc(C(=O)Nc2n[nH]c3c2CN(C(=O)N[C@H](CN(C)C)c2ccccc2)[C@H]3c2ccccc2)cc1 [Compound 239, (S)-3-(4-acrylamidobenzamido)-N-((S)-2-(dimethylamino)-1-phenylethyl)-6-phenyl-4,6-dihydropyrrolo[3,4-c]pyrazole-5(1H)-carboxamide] |
| < 0.1 | C=CC(=O)Nc1cccc(C(=O)Nc2nn(C)c3c2CN(C(=O)N[C@H](CN(C)C)c2ccccc2)C3(C)C)c1 [Compound 241, (S)-3-(3-acrylamidobenzamido)-N-(2-(dimethylamino)-1-phenylethyl)-1,6,6-trimethyl-4,6-dihydropyrrolo[3,4-c]pyrazole-5(1H)-carboxamide] |
| ≥ 1 | C=CC(=O)Nc1ccc(C(=O)Nc2c3c(nn2C)C(C)(C)N(C(=O)N[C@H](CN(C)C)c2ccccc2)C3)cc1 [Compound 242, (S)-3-(4-acrylamidobenzamido)-N-(2-(dimethylamino)-1-phenylethyl)-2,6,6-trimethyl-2,6-dihydropyrrolo[3,4-c]pyrazole-5(4H)-carboxamide] |
| ≥ 1 | C=CC(=O)Nc1ccc(C(=O)Nc2nn(C)c3c2CN(C(=O)N[C@H](CN(C)C)c2ccccc2)C3(C)C)c(OC)c1 [Compound 243, (S)-3-(4-acrylamido-2-methoxybenzamido)-N-(2-(dimethylamino)-1-phenylethyl)-1,6,6-trimethyl-4,6-dihydropyrrolo[3,4-c]pyrazole-5(1H)-carboxamide] |
| ≥ 1 | C=CC(=O)Nc1ccc(C(=O)Nc2c3c(nn2C)C(C)(C)N(C(=O)N[C@H](CN(C)C)c2ccccc2)C3)c(OC)c1 [Compound 244, (S)-3-(4-acrylamido-2-methoxybenzamido)-N-(2-(dimethylamino)-1-phenylethyl)-2,6,6-trimethyl-2,6-dihydropyrrolo[3,4-c]pyrazole-5(4H)-carboxamide] |
| 0.1 to 1 | C=CC(=O)Nc1ccc(C(=O)Nc2nn(C)c3c2CN(C(=O)O[C@H](CN(C)C)c2ccccc2)C3(C)C)cc1 [Compound 246, (S)-2-(dimethylamino)-1-phenylethyl 3-(4-acrylamidobenzamido)-1,6,6-trimethyl-4,6-dihydropyrrolo[3,4-c]pyrazole-5(1H)-carboxylate] |

Reference: patent US10870651B2, “Inhibitors of cyclin-dependent kinase 7 (CDK7)” (Dana-Farber Cancer Institute, Inc., priority 2014, dated 2020)
